Source: patent US20260035364A1, “BICYCLIC TETRAHYDROTHIAZEPINE DERIVATIVES” (Hoffmann-La Roche Inc., priority 2022, published 2026)

Experiments:
MV-3 cells = assay: T-cell - TCB - MV3 killing assay; assay type: cell-based; settings: Homo sapiens, 120 h, T-cells + MCSP-TCB on MV-3 RFP cells, 5 d; for Emax: 20 μM reference compound A1 = 100%, read-out: MSCP TCB killing MV-3 cells 5 d Emax; for EC50: read-out: MSCP TCB killing MV-3 cells 5 d EC50
Procedure: All culturing steps are executed at 5% CO2, 37° C. and 95% humidity.
MV-3 RFP cells are cultured in MV-3 medium (DMEM+10% FBS, 1× PenStrep and 0.5 μg/mL Puromycin) for at least 3 weeks. Cultured MV-3 cells at 80% confluency are washed once with PBS−− and trypsinized until detached. […] Cells are seeded with 100 μL/well into a 96-well plate (TTP, #92696), and placed for 40 minutes without moving at room temperature in order to achieve evenly distributed attachment of cells. Plates are then incubated until further use.
On the next day, expanded primary human T-cells are thawed and resuspended in T-cell medium to 4*10^6 cells/mL. For 3 hours, they are cultured in a 6-well plate with 6 mL per well at maximum. After culturing the T-cells, they are filtered through a cell strainer (Miltenyi Biotech, #130-041-407), counted again, and cell concentration is adjusted to 2*10^6 cells/mL.
MCSP-TCB or PBS are pre-diluted in T-cell medium (concentration depending on T-cell donor), 4 times more concentrated than the end-concentration. 60 μL/well of pre-dilutions are then distributed into a round bottom plate (Costar, #3799) according to plate layout. Compounds are added in a 9 pt dose response with the Tecan D300e Digital Dispenser, as well 4 times more concentrated than the end-concentration. DMSO concentration of all wells is adjusted to 0.8%, resulting in 0.2% as final concentration.
60 μL per well of T-cell suspension are added to the prepared round bottom plate and resuspended with a manual multichannel. 100 μL/well of the resuspended T-cell suspension including treatments are then transferred cautiously to the over-night cultured MV-3 cells according to plate layout. 100 μL T-cell medium only is added to the outer MV-3 wells only. Final compound DR is starting at 20 μM with a dilution factor of 3.333. Final TCB concentration is between […] and was determined for each T-cell donor individually by running TCB titrations. For each donor, a TCB concentration was chosen which corresponds to 10-20% of MV3 baseline cell killing in the absence of compound treatment. Positive control is the reference compound A1 which is added in a DR, as well as additional wells with only 20 μM. 20 μM of reference compound A1 represent the positive stimulator control, TCB only (DMSO wells) the neutral control.
After transfer of T-cells with treatment pre-dilutions, MV-3 cells are imaged by time-lapse microscopy using IncucyteZOOM™ (Essen BioScience, MI, USA). Imaging is performed every 3 hours for a total of 120 hours (1OX objective, phase and red image channels, acquisition time 400 ms, Green/Red 4614 optical module). RFP object count per well is analysed in the IncucyteZOOM™ Software (Version 2019B Rev2) with a mask that was previously created and optimized for MV-3 cells. Raw data is exported as object count/well and values are normalized as % TCL compared to wells with MV-3 only, representing 100% growth and therefore 0% TCL.
Calculated % TCL values are analysed in Genedata Screener using Roche Normalization PCT_POS_CTRL with MCSP-TCB only set as Neutral Control and 20 μM of the reference compound A1 set as Stimulator Control/100%.
Induced TCL by compounds without TCB treatment or toxicity (observed in the PBS condition) were be flagged.

DGKalpha = DGKalpha (Homo sapiens, UniProt P23743); assay: In vitro DGK inhibition assay (ADP Glo) run by Reaction Biology Corp., DGKalpha; assay type: biochemical; set-up: purchased Reaction Biology Corp. (assay service); settings: 2 nM kinase, 500 uM DLG, 10-dose duplicate
Procedure: (§1) DGK α and ζ kinases use ATP to phosphorylate the substrate 1,2-dilauroyl-sn-glycerol (DLG). ATP is converted to ADP as a result of this enzymatic reaction.
(§2) After the kinase reaction, an ATP-depletion reagent is added to terminate the kinase reaction and deplete any remaining ATP, leaving only ADP. Second, a detection reagent is added to simultaneously convert ADP to ATP and allow the newly synthesized ATP to be converted to light using a coupled
(§3) luciferase/luciferin reaction.
(§4) DGK α and ζ kinase ADP Glo assays were ran by Reaction Biology Corp., 1 Great Valley Parkway, Suite 2, Malvern, 19355, PA, USA. Information provided by the service provider are the following: DGK α and ζ kinases were used at 2 nM final concentration. Reactions were carried out at 50 µM ATP. 500 uM of the substrate DLG (Dilauroyl-sn-glycerol) was used.

DGKzeta = DGKzeta (Homo sapiens, UniProt Q13574); assay: In vitro DGK inhibition assay (ADP Glo) run by Reaction Biology Corp., DGKzeta; assay type: biochemical; set-up: purchased Reaction Biology Corp. (assay service); settings: 2 nM kinase, 500 uM DLG, 10-dose duplicate
Procedure: as §1, §2, §3, §4

Sequence of DGKalpha (P23743 whole entry, species assumed): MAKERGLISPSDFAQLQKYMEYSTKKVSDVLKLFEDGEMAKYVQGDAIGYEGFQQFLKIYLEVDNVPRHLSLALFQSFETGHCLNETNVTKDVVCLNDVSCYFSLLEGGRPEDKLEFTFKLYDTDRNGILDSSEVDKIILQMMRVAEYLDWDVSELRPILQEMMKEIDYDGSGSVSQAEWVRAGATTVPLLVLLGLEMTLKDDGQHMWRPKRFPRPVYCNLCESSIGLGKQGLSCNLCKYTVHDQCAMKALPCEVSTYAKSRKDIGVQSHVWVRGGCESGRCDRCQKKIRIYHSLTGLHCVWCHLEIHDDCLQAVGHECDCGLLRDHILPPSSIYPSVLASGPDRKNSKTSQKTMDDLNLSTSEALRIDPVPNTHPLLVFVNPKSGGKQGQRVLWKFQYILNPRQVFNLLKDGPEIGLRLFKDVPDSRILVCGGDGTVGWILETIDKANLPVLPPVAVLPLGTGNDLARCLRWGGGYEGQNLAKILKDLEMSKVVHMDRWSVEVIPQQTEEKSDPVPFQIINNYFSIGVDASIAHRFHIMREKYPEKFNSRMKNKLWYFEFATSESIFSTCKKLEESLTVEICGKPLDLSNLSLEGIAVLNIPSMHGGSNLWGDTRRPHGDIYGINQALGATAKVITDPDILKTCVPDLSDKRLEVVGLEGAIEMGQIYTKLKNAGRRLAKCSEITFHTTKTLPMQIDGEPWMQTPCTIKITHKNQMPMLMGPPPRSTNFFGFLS
Sequence of DGKzeta (Q13574 whole entry, species assumed): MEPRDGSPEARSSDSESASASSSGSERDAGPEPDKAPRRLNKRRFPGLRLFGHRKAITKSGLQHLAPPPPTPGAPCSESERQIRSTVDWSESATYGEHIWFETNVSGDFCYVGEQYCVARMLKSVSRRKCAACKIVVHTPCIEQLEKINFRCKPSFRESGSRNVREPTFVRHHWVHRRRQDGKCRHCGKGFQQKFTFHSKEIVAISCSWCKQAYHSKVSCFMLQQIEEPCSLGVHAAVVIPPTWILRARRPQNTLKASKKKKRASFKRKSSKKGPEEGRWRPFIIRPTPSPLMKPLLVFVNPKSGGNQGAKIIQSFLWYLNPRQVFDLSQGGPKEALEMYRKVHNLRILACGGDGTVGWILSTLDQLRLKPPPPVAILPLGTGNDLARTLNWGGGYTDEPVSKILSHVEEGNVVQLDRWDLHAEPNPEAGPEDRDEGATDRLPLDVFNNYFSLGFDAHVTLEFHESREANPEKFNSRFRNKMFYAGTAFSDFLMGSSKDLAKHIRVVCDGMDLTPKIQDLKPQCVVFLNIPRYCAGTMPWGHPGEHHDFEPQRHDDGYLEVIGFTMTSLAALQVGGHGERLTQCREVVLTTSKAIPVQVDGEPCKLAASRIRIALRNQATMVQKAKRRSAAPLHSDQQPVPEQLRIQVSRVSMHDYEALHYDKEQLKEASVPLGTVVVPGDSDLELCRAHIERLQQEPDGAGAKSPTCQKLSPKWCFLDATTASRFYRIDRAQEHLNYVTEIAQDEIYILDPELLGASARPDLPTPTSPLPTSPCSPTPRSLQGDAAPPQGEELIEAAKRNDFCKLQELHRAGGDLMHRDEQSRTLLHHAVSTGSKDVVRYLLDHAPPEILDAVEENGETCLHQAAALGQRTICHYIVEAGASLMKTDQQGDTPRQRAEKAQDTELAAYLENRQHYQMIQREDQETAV

Row | IC50 (DGKalpha) [nM] | IC50 (DGKzeta) [nM] | Compound | Emax (MV-3 cells) [%] | EC50 (MV-3 cells) [nM]
1 |  |  | CC(C)(c1nnc(-c2ccc3c(c2)N(Cc2ccc(Oc4ccccc4)cc2)C(=O)[C@@H](N)CS3(=O)=O)o1)S(C)(=O)=O [Example 5, (3R)-3-amino-7-[5-(1-methyl-1-methylsulfonyl-ethyl)-1,3,4-oxadiazol-2-yl]-1,1-dioxo-5-[(4-phenoxyphenyl)methyl]-2,3-dihydro-1λ6,5-benzothiazepin-4-one] | 154 | 982
2 | 7.8 | 5.5 | CC(C)(c1nc(-c2cc3c(cc2F)S(=O)(=O)C[C@H](N)C(=O)N3Cc2ccc(Oc3ccccc3)cc2)no1)S(C)(=O)=O [Example 30, (3R)-3-amino-8-fluoro-7-[5-(1-methyl-1-methylsulfonyl-ethyl)-1,2,4-oxadiazol-3-yl]-1,1-dioxo-5-[(4-phenoxyphenyl)methyl]-2,3-dihydro-1λ6,5-benzothiazepin-4-one] | 100 | 41
3 |  |  | CC(C)(c1nnc(-c2ccc3c(c2)N(Cc2ccc(Oc4cccc(F)c4)cc2)C(=O)[C@@H](N)CS3(=O)=O)o1)S(C)(=O)=O [Example 33, (3R)-3-amino-5-[[4-(3-fluorophenoxy)phenyl]methyl]-7-[5-(1-methyl-1-methylsulfonyl-ethyl)-1,3,4-oxadiazol-2-yl]-1,1-dioxo-2,3-dihydro-1λ6,5-benzothiazepin-4-one] | 117 | 465
4 |  |  | CC(C)(c1nnc(-c2ccc3c(c2)N(Cc2ccc(Oc4cccc(Cl)c4)cc2)C(=O)[C@@H](N)CS3(=O)=O)o1)S(C)(=O)=O [Example 34, (3R)-3-amino-5-[[4-(3-chlorophenoxy)phenyl]methyl]-7-[5-(1-methyl-1-methylsulfonyl-ethyl)-1,3,4-oxadiazol-2-yl]-1,1-dioxo-2,3-dihydro-1λ6,5-benzothiazepin-4-one] | 95 | 392
5 | 7.1 | 6.6 | CC(C)(c1nnc(-c2cc3c(cc2F)S(=O)(=O)C[C@H](N)C(=O)N3Cc2ccc(-c3ccc(C(F)(F)F)cc3)cc2)o1)S(C)(=O)=O [Example 35, (3R)-3-amino-8-fluoro-7-[5-(1-methyl-1-methylsulfonyl-ethyl)-1,3,4-oxadiazol-2-yl]-1,1-dioxo-5-[[4-[4-(trifluoromethyl)phenyl]phenyl]methyl]-2,3-dihydro-1λ6,5-benzothiazepin-4-one] |  | 
6 |  |  | CC(C)(c1nnc(-c2ccc3c(c2)N(Cc2ccc(Oc4cccc(C(F)(F)F)c4)cc2)C(=O)[C@@H](N)CS3(=O)=O)o1)S(C)(=O)=O [Example 38] | 102 | 112
7 |  |  | CC(C)(c1nc(-c2cc3c(cc2F)S(=O)(=O)C[C@H](N)C(=O)N3Cc2ccc(OC(F)(F)F)cc2)no1)S(C)(=O)=O [Example 44, (3R)-3-amino-8-fluoro-7-[5-(1-methyl-1-methylsulfonyl-ethyl)-1,2,4-oxadiazol-3-yl]-1,1-dioxo-5-[[4-(trifluoromethoxy)phenyl]methyl]-2,3-dihydro-1λ6,5-benzothiazepin-4-one] | 131 | 65
8 |  |  | CC(C)(c1nc(-c2cc3c(cc2F)S(=O)(=O)C[C@H](N)C(=O)N3Cc2ccc(-c3noc(C4CC4)n3)cc2)no1)S(C)(=O)=O [Example 45, (3R)-3-amino-5-[[4-(5-cyclopropyl-1,2,4-oxadiazol-3-yl)phenyl]methyl]-8-fluoro-7-[5-(1-methyl-1-methylsulfonyl-ethyl)-1,2,4-oxadiazol-3-yl]-1,1-dioxo-2,3-dihydro-1λ6,5-benzothiazepin-4-one] | 67 | 35
9 |  |  | CC(C)(c1nc(-c2cc3c(cc2F)S(=O)(=O)C[C@H](N)C(=O)N3Cc2ccc(-c3noc(C(F)(F)F)n3)cc2)no1)S(C)(=O)=O [Example 46, (3R)-3-amino-8-fluoro-7-[5-(1-methyl-1-methylsulfonyl-ethyl)-1,2,4-oxadiazol-3-yl]-1,1-dioxo-5-[[4-[5-(trifluoromethyl)-1,2,4-oxadiazol-3-yl]phenyl]methyl]-2,3-dihydro-1λ6,5-benzothiazepin-4-one] | 65 | 25
10 | 67.7 | 142 | CC(C)(c1nnc(-c2ccc3c(c2)N(Cc2ccc(-c4ccc(C(F)(F)F)cc4)cc2)C(=O)[C@@H](N)CS3(=O)=O)o1)S(C)(=O)=O [Example 56, (3R)-3-amino-7-[5-(1-methyl-1-methylsulfonyl-ethyl)-1,3,4-oxadiazol-2-yl]-1,1-dioxo-5-[[4-[4-(trifluoromethyl)phenyl]phenyl]methyl]-2,3-dihydro-1λ6,5-benzothiazepin-4-one] | 100 | 105
11 |  |  | CC(C)(c1nnc(-c2ccc3c(c2)N(Cc2ccc(-c4ccc(C(F)(F)F)cc4)nc2)C(=O)[C@@H](N)CS3(=O)=O)o1)S(C)(=O)=O [Example 57, (3R)-3-amino-7-[5-(1-methyl-1-methylsulfonyl-ethyl)-1,3,4-oxadiazol-2-yl]-1,1-dioxo-5-[[6-[4-(trifluoromethyl)phenyl]-3-pyridyl]methyl]-2,3-dihydro-1λ6,5-benzothiazepin-4-one] | 104 | 1850
